Data published in PubChem BioAssay AID248 (DTP/NCI, 2004).
“And” between values parts separate entries of the source, which are not always exact repeats. Equal values may be shown once. Inconclusive results and toxic doses are left out.

Test system: L1210 leukemia ip in BDF1 mice, survival T/C
Test: NCI In Vivo Anticancer Drug Screen. Data for tumor model L1210 Leukemia (intraperitoneal) in B6D2F1 (BDF1) mice
Conditions: endpoint: mean survival time, higher = longer survival
How it was run: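 Transplantable tumor model; survival measured in treated vs vehicle control mice. Value = treated/control.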

[1] = dose: 100.0 mg/kg/injection, schedule: Q04DX002 (ip), vehicle: Klucel (hydroxypropylcellulose) (HPC)
[2] = dose: 200.0 mg/kg/injection, schedule: Q04DX002 (ip), vehicle: Klucel (hydroxypropylcellulose) (HPC)
[3] = dose: 400.0 mg/kg/injection, schedule: Q04DX002 (ip), vehicle: Klucel (hydroxypropylcellulose) (HPC)
[4] = dose: 75.0 mg/kg/injection, schedule: Q01DX001 (ip), vehicle: saline
[5] = dose: 100.0 mg/kg/injection, schedule: Q04DX003 (ip), vehicle: saline with Tween-80
[6] = dose: 200.0 mg/kg/injection, schedule: Q04DX003 (ip), vehicle: saline with Tween-80
[7] = dose: 400.0 mg/kg/injection, schedule: Q04DX003 (ip), vehicle: saline with Tween-80
[8] = dose: 100.0 mg/kg/injection, schedule: Q01DX001 (ip), vehicle: saline
[9] = dose: 200.0 mg/kg/injection, schedule: Q01DX001 (ip), vehicle: saline
[10] = dose: 400.0 mg/kg/injection, schedule: Q01DX001 (ip), vehicle: saline
[11] = dose: 100.0 mg/kg/injection, schedule: Q01DX009 (ip), vehicle: saline with Tween-80
[12] = dose: 200.0 mg/kg/injection, schedule: Q01DX009 (ip), vehicle: saline with Tween-80
[13] = dose: 100.0 mg/kg/injection, schedule: Q01DX001 (ip), vehicle: carboxymethylcellulose (CMC)
[14] = dose: 200.0 mg/kg/injection, schedule: Q01DX001 (ip), vehicle: carboxymethylcellulose (CMC)
[15] = dose: 400.0 mg/kg/injection, schedule: Q01DX001 (ip), vehicle: carboxymethylcellulose (CMC)

Structure (SMILES): NC(N)=NN=C1c2ccccc2-c2ccccc21
- T/C (dose: 1.0 mg/kg/injection, schedule: Q01DX Z (ip), vehicle: methylcellulose (MC)): 107 % of control
- T/C (dose: 2.0 mg/kg/injection, schedule: Q01DX Z (ip), vehicle: methylcellulose (MC)): 102 % of control
- T/C (dose: 4.0 mg/kg/injection, schedule: Q01DX Z (ip), vehicle: methylcellulose (MC)): 103 % of control
- T/C (dose: 4.0 mg/kg/injection, schedule: Q01DX Z (oral), vehicle: methylcellulose (MC)): 95 % of control
- T/C (dose: 8.0 mg/kg/injection, schedule: Q01DX Z (ip), vehicle: methylcellulose (MC)): 107 % of control
- T/C (dose: 16.0 mg/kg/injection, schedule: Q01DX Z (oral), vehicle: methylcellulose (MC)): 107 % of control

Structure (SMILES): CCCCNC(=O)Nc1ccc(Cl)cc1C(=O)c1ccccc1
- T/C [1]: 105 % of control
- T/C [2]: 102 % of control
- T/C [3]: 94 % of control

Structure (SMILES): CCCCCC[Si](Cl)(Cl)Cl
- T/C [4]: 101 % of control
- T/C (dose: 150.0 mg/kg/injection, schedule: Q01DX001 (ip), vehicle: saline): 91 % of control

Structure (SMILES): CC(CCc1ccccc1)C12CCC(CC1O)C2 (configuration not stated)
- T/C [1]: 96 % of control
- T/C [2]: 110 % of control
- T/C [3]: 96 % of control

Structure (SMILES): NC(N)=N/N=C(/CC(=O)c1ccccc1)c1ccccc1
- T/C (dose: 15.0 mg/kg/injection, schedule: Q01DX Z (ip), vehicle: carboxymethylcellulose (CMC)): 103 % of control
- T/C (dose: 30.0 mg/kg/injection, schedule: Q01DX Z (ip), vehicle: carboxymethylcellulose (CMC)): 107 % of control
- T/C (dose: 30.0 mg/kg/injection, schedule: Q01DX Z (oral), vehicle: carboxymethylcellulose (CMC)): 98 % of control
- T/C (dose: 60.0 mg/kg/injection, schedule: Q01DX Z (ip), vehicle: carboxymethylcellulose (CMC)): 101 % of control
- T/C (dose: 60.0 mg/kg/injection, schedule: Q01DX Z (oral), vehicle: carboxymethylcellulose (CMC)): 96 % of control
- T/C (dose: 120.0 mg/kg/injection, schedule: Q01DX Z (oral), vehicle: carboxymethylcellulose (CMC)): 98 % of control
- T/C (dose: 240.0 mg/kg/injection, schedule: Q01DX Z (oral), vehicle: carboxymethylcellulose (CMC)): 93 % of control and 100 % of control
- T/C (dose: 480.0 mg/kg/injection, schedule: Q01DX Z (oral), vehicle: carboxymethylcellulose (CMC)): 100 % of control

Structure (SMILES): Cc1cc(O)c(O)c(S(=O)(=O)c2ccccc2)c1
- T/C (dose: 87.5 mg/kg/injection, schedule: Q01DX009 (ip), vehicle: saline with Tween-80): 94 % of control
- T/C (dose: 175.0 mg/kg/injection, schedule: Q01DX009 (ip), vehicle: saline with Tween-80): 96 % of control
- T/C (dose: 350.0 mg/kg/injection, schedule: Q01DX009 (ip), vehicle: saline with Tween-80): 100 % of control

Structure (SMILES): Cc1cc(NC(=O)c2ccc(C(=O)Nc3cc(C)nc4ccccc34)cc2)c2ccccc2n1
- T/C (dose: 100.0 mg/kg/injection, schedule: Q01DX001 (ip), vehicle: other): 102 % of control

Structure (SMILES): O=c1cc(-c2ccccc2)c2ccc(O)cc2o1
- T/C [5]: 95 % of control
- T/C [6]: 101 % of control
- T/C [7]: 93 % of control

Structure (SMILES): CC(=O)c1cccc(OC(=O)c2ccccc2)c1
- T/C (dose: 50.0 mg/kg/injection, schedule: Q01DX001 (ip), vehicle: saline): 112 % of control
- T/C [8]: 106 % of control
- T/C [9]: 104 % of control
- T/C [10]: 104 % of control

Structure (SMILES): CCOC(=O)c1ccc(NC(=O)N(CCCl)N=O)cc1
- T/C (dose: 9.0 mg/kg/injection, schedule: Q01DX001 (ip), vehicle: carboxymethylcellulose (CMC)): 215 % of control
- T/C (dose: 18.7 mg/kg/injection, schedule: Q01DX001 (ip), vehicle: carboxymethylcellulose (CMC)): 157 % of control

Structure (SMILES): CCCOc1ccc(/C=N\N=C\c2ccc(OCCC)cc2)cc1
- T/C [11]: 94 % of control
- T/C [12]: 94 % of control
- T/C (dose: 400.0 mg/kg/injection, schedule: Q01DX009 (ip), vehicle: saline with Tween-80): 91 % of control

Structure (SMILES): Brc1ncnc2nc[nH]c12
- T/C (dose: 62.5 mg/kg/injection, schedule: Q01DX Z (ip), vehicle: carboxymethylcellulose (CMC)): 97 % of control
- T/C (dose: 75.0 mg/kg/injection, schedule: Q01DX Z (ip), vehicle: carboxymethylcellulose (CMC)): 120 % of control
- T/C (dose: 100.0 mg/kg/injection, schedule: Q01DX Z (ip), vehicle: methylcellulose (MC)): 111 % of control
- T/C (dose: 125.0 mg/kg/injection, schedule: Q01DX Z (ip), vehicle: carboxymethylcellulose (CMC)): 121 % of control
- T/C (dose: 200.0 mg/kg/injection, schedule: Q01DX Z (ip), vehicle: methylcellulose (MC)): 120 % of control

Structure (SMILES): C1CCC(C2CCC(C3CCCC3)C2)C1 (configuration not stated)
- T/C (dose: 100.0 mg/kg/injection, schedule: Q04DX002 (ip), vehicle: saline with Tween-80): 91 % of control
- T/C (dose: 200.0 mg/kg/injection, schedule: Q04DX002 (ip), vehicle: saline with Tween-80): 94 % of control
- T/C (dose: 400.0 mg/kg/injection, schedule: Q04DX002 (ip), vehicle: saline with Tween-80): 91 % of control

Structure (SMILES): CCCCCCCCCCSCCSCCCCCCCCCC
- T/C [13]: 95 % of control
- T/C [5]: 96 % of control
- T/C [14]: 101 % of control
- T/C [6]: 93 % of control
- T/C [15]: 95 % of control
- T/C [7]: 89 % of control

Structure (SMILES): CN(C)CC(O)c1ccc2oc3ccccc3c2c1 (configuration not stated)
- T/C [8]: 90 % of control
- T/C [9]: 97 % of control

Structure (SMILES): COc1ccc(/C=N/NC(=O)c2ccccc2Cl)cc1OC
- T/C (dose: 50.0 mg/kg/injection, schedule: Q01DX009 (ip), vehicle: saline with Tween-80): 102 % of control
- T/C [11]: 91 % of control
- T/C [12]: 88 % of control

Structure (SMILES): O=C1CCCCCCCCCCCCCC1
- T/C [1]: 102 % of control
- T/C [2]: 102 % of control
- T/C [3]: 102 % of control

Structure (SMILES): O=C1OC(c2ccccc2)=N/C1=C\c1ccccc1
- T/C (dose: 50.0 mg/kg/injection, schedule: Q01DX001 (ip), vehicle: carboxymethylcellulose (CMC)): 93 % of control
- T/C [13]: 95 % of control
- T/C (dose: 100.0 mg/kg/injection, schedule: Q04DX002 (ip), vehicle: gum acacia): 91 % of control
- T/C [14]: 101 % of control
- T/C (dose: 200.0 mg/kg/injection, schedule: Q04DX002 (ip), vehicle: gum acacia): 109 % of control
- T/C [15]: 90 % of control
- T/C (dose: 400.0 mg/kg/injection, schedule: Q04DX002 (ip), vehicle: gum acacia): 98 % of control

Structure (SMILES): CCN(CC)c1ccc(/C=C/C=O)cc1
- T/C (dose: 50.0 mg/kg/injection, schedule: Q01DX009 (ip), vehicle: gum acacia): 103 % of control
- T/C (dose: 100.0 mg/kg/injection, schedule: Q01DX009 (ip), vehicle: gum acacia): 103 % of control
- T/C (dose: 100.0 mg/kg/injection, schedule: Q04DX003 (ip), vehicle: gum acacia): 93 % of control
- T/C (dose: 200.0 mg/kg/injection, schedule: Q01DX009 (ip), vehicle: gum acacia): 91 % of control
- T/C (dose: 200.0 mg/kg/injection, schedule: Q04DX003 (ip), vehicle: gum acacia): 96 % of control

Structure (SMILES): O=C(Nc1cccs1)c1ccccc1
- T/C (dose: 100.0 mg/kg/injection, schedule: Q04DX003 (ip), vehicle: saline): 97 % of control
- T/C (dose: 200.0 mg/kg/injection, schedule: Q04DX003 (ip), vehicle: saline): 93 % of control
- T/C (dose: 400.0 mg/kg/injection, schedule: Q04DX003 (ip), vehicle: saline): 95 % of control

Structure (SMILES): NC1CCCCC1.[O]=[Cr](=[O])([OH])[OH]
- T/C (dose: 12.5 mg/kg/injection, schedule: Q01DX009 (ip), vehicle: saline sonified): 100 % of control
- T/C (dose: 25.0 mg/kg/injection, schedule: Q01DX009 (ip), vehicle: saline sonified): 109 % of control
- T/C (dose: 50.0 mg/kg/injection, schedule: Q04DX003 (ip), vehicle: Klucel (hydroxypropylcellulose) (HPC)): 102 % of control
- T/C [4]: 98 % of control

Structure (SMILES): CC(=O)N1Cc2c(N)ncnc2C1C (configuration not stated)
- T/C [8]: 100 % of control
- T/C [9]: 108 % of control
- T/C [10]: 114 % of control
